Key:
Type in all cases: in vivo
Sorghum = assay: Pre-emergence test/Greenhouse, Sorghum; details: after three weeks
Procedure, shortened: (§1)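 Compound formulated with solvent and emulsifier, diluted in water, and watered onto soil about 24 h after sowing; application rate per unit area is what counts. Damage rated after three weeks as % versus untreated control (0% = no action).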

Ambrosia = assay: Pre-emergence test/Greenhouse, Ambrosia; details: after three weeks
Procedure, shortened: as §1

Lolium = assay: Pre-emergence test/Greenhouse, Lolium; details: after three weeks
Procedure, shortened: as §1

Matricaria = assay: Pre-emergence test/Greenhouse, Matricaria; details: after three weeks
Procedure, shortened: as §1

weeds = assay: Pre-emergence test (greenhouse), activity against weeds; details: in words
Procedure, shortened: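 Compound formulated in acetone with alkylaryl polyglycol ether emulsifier, diluted in water, and watered onto soil about 24 h after sowing, dosed by application rate per unit area. Damage rated after three weeks as % versus untreated control (0% = no action).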

Poa = assay: Pre-emergence test/Greenhouse, Poa; details: after three weeks
Procedure, shortened: as §1

Soya beans = assay: Pre-emergence test/Greenhouse, Soya beans; details: in vivo
Procedure, shortened: as §1

Solanum = assay: Pre-emergence test/Greenhouse, Solanum; details: after three weeks
Procedure, shortened: as §1

Maize = assay: Pre-emergence test/Greenhouse, Maize; details: in vivo
Procedure, shortened: as §1

SMILES | degree of damage to the plants (% damage vs untreated control), Sorghum (Sorghum; 125 g of ai./ha) [%] | degree of damage to the plants (% damage vs untreated control), Ambrosia (Ambrosia; 125 g of ai./ha) [%] | degree of damage to the plants (% damage vs untreated control), Lolium (Lolium; 125 g of ai./ha) [%] | degree of damage to the plants (% damage vs untreated control), Matricaria (Matricaria; 125 g of ai./ha) [%] | activity against weeds (weeds) | degree of damage to the plants (% damage vs untreated control), Poa (Poa; 125 g of ai./ha) [%] | degree of damage to the plants (% damage vs untreated control), Soya beans (Soya beans) [%] | degree of damage to the plants (% damage vs untreated control), Solanum (Solanum; 125 g of ai./ha) [%] | degree of damage to the plants (% damage vs untreated control), Maize (Maize) [%] | also measured
Cc1nc(C(=O)NS(=O)(=O)c2c(C)cccc2C(=O)OC(C)C)no1 [Example 12] | 60 | 95 | 80 | 95 | very strong activity against weeds | 80 | 0 | 95 | 0 | 
Cc1cccc(C(=O)OC(C)C)c1S(=O)(=O)NC(=O)n1nc(OC(C)C)n(C)c1=O [Example 18] |  |  |  |  | very strong activity against weeds |  | 0 |  | 10 | degree of damage to the plants (% damage vs untreated control), Sorghum (Sorghum; 60 g of ai./ha): 90%; degree of damage to the plants (% damage vs untreated control), Ambrosia (Ambrosia; 60 g of ai./ha): 95%; degree of damage to the plants (% damage vs untreated control), Lolium (Lolium; 60 g of ai./ha): 80%; degree of damage to the plants (% damage vs untreated control), Matricaria (Matricaria; 60 g of ai./ha): 95%; degree of damage to the plants (% damage vs untreated control), Poa (Poa; 60 g of ai./ha): 95%; degree of damage to the plants (% damage vs untreated control), Solanum (Solanum; 60 g of ai./ha): 95%
CCCOC(=O)c1cccc(C)c1S(=O)(=O)NC(=O)n1nc(OC)n(C)c1=O [Example 20] | 90 | 95 | 95 | 95 | very strong activity against weeds | 95 | 0 | 95 | 10 | 
CCCOC(=O)c1cccc(C)c1S(=O)(=O)NC(=O)n1nc(OCC)n(C)c1=O [Example 21] | 95 | 95 | 95 | 95 | very strong activity against weeds | 95 | 0 | 95 | 0 | 
CCCOC(=O)c1cccc(C)c1S(=O)(=O)NC(=O)n1nc(OCCC)n(C)c1=O [Example 22] | 80 | 95 | 95 | 95 | very strong activity against weeds | 95 | 10 | 95 | 20 | 
CCSc1nn(C(=O)NS(=O)(=O)c2c(C)csc2C(=O)OC)c(=O)n1C [Example 34] |  |  |  |  | very strong activity against weeds |  | 0 |  | 10 | degree of damage to the plants (% damage vs untreated control), Sorghum (Sorghum; 60 g of ai./ha): 80%; degree of damage to the plants (% damage vs untreated control), Ambrosia (Ambrosia; 60 g of ai./ha): 90%; degree of damage to the plants (% damage vs untreated control), Lolium (Lolium; 60 g of ai./ha): 60%; degree of damage to the plants (% damage vs untreated control), Matricaria (Matricaria; 60 g of ai./ha): 95%; degree of damage to the plants (% damage vs untreated control), Poa (Poa; 60 g of ai./ha): 70%; degree of damage to the plants (% damage vs untreated control), Solanum (Solanum; 60 g of ai./ha): 90%
CCCOC(=O)c1cccc(C)c1S(=O)(=O)NC(=O)n1nc(CCC)n(C)c1=O [Example 47] | 60 | 95 | 90 | 95 | very strong activity against weeds | 90 | 10 | 95 | 10 | 
C#CCSc1nn(C(=O)NS(=O)(=O)c2c(C)csc2C(=O)OC)c(=O)n1C [Example 51] | 80 | 95 | 80 | 95 | very strong activity against weeds | 80 | 30 | 95 | 0 | 
CCOC(=O)c1scc(C)c1S(=O)(=O)NC(=O)n1nc(C(C)C)n(C)c1=O [Example 68] | 60 | 95 | 80 | 100 | very strong activity against weeds | 90 | 10 | 95 | 5 | 
CCOc1nn(C(=O)NS(=O)(=O)c2c(Cl)cccc2C(=O)OC)c(=O)n1C [Example 129] |  |  |  |  | very strong activity against weeds |  | 10 |  | 10 | degree of damage to the plants (% damage vs untreated control), Sorghum (Sorghum; 250 g of ai./ha): 90%; degree of damage to the plants (% damage vs untreated control), Ambrosia (Ambrosia; 250 g of ai./ha): 60%; degree of damage to the plants (% damage vs untreated control), Lolium (Lolium; 250 g of ai./ha): 95%; degree of damage to the plants (% damage vs untreated control), Matricaria (Matricaria; 250 g of ai./ha): 90%; degree of damage to the plants (% damage vs untreated control), Poa (Poa; 250 g of ai./ha): 95%; degree of damage to the plants (% damage vs untreated control), Solanum (Solanum; 250 g of ai./ha): 95%
COC(=O)c1cccc(Cl)c1S(=O)(=O)NC(=O)n1nc(SC)n(C)c1=O [Example 130] |  |  |  |  | very strong activity against weeds |  | 0 |  | 10 | degree of damage to the plants (% damage vs untreated control), Sorghum (Sorghum; 250 g of ai./ha): 80%; degree of damage to the plants (% damage vs untreated control), Ambrosia (Ambrosia; 250 g of ai./ha): 95%; degree of damage to the plants (% damage vs untreated control), Lolium (Lolium; 250 g of ai./ha): 95%; degree of damage to the plants (% damage vs untreated control), Matricaria (Matricaria; 250 g of ai./ha): 95%; degree of damage to the plants (% damage vs untreated control), Poa (Poa; 250 g of ai./ha): 95%; degree of damage to the plants (% damage vs untreated control), Solanum (Solanum; 250 g of ai./ha): 95%
CCOC(=O)c1cccc(Cl)c1S(=O)(=O)NC(=O)n1nc(SC)n(C)c1=O [Example 131] |  |  |  |  | very strong activity against weeds |  | 0 |  | 0 | degree of damage to the plants (% damage vs untreated control), Sorghum (Sorghum; 250 g of ai./ha): 90%; degree of damage to the plants (% damage vs untreated control), Ambrosia (Ambrosia; 250 g of ai./ha): 95%; degree of damage to the plants (% damage vs untreated control), Lolium (Lolium; 250 g of ai./ha): 95%; degree of damage to the plants (% damage vs untreated control), Matricaria (Matricaria; 250 g of ai./ha): 80%; degree of damage to the plants (% damage vs untreated control), Poa (Poa; 250 g of ai./ha): 90%; degree of damage to the plants (% damage vs untreated control), Solanum (Solanum; 250 g of ai./ha): 95%
CCCOC(=O)c1cccc(Cl)c1S(=O)(=O)NC(=O)n1nc(OCC)n(C)c1=O [Example 134] |  |  |  |  | very strong activity against weeds |  | 20 |  | 0 | degree of damage to the plants (% damage vs untreated control), Sorghum (Sorghum; 500 g of ai./ha): 70%; degree of damage to the plants (% damage vs untreated control), Ambrosia (Ambrosia; 500 g of ai./ha): 80%; degree of damage to the plants (% damage vs untreated control), Lolium (Lolium; 500 g of ai./ha): 95%; degree of damage to the plants (% damage vs untreated control), Matricaria (Matricaria; 500 g of ai./ha): 90%; degree of damage to the plants (% damage vs untreated control), Poa (Poa; 500 g of ai./ha): 90%; degree of damage to the plants (% damage vs untreated control), Solanum (Solanum; 500 g of ai./ha): 95%
